Measured values: US6369058B1 (New Millennium Pharmaceutical Research Inc., priority 1999, dated 2002)

Assays:
[1] = Absorption of folic acid from the nasal cavity of rats (in vivo technique, spectrophotometric assay of nasal washings); conditions: rat, intranasal 0.1 ml of folic acid solution (50 mg/10 ml, pH 8.3), nasal cavity washed with 3 ml water
Experimental: Rats were fasted overnight prior to experimentation. Surgical procedures were performed under equithesin anesthesia (3 ml/kg, i.p.). An incision was made in the neck of each rat, and the trachea cannulated with polyethylene tubing (PF-260). A closed end tube was inserted through the esophagus to the posterior part of the nasal cavity to prevent drug from entering the esophagus. The nasopalatine passage was closed with an adhesive agent to prevent drainage of the drug from the nasal cavity to the mouth.
The solution was filtered. The final pH was 8.3.
The washings were placed in a spectrophotometer cell and the absorbance was measured.

[2] = in vivo; cited from earlier work

SMILES | Concentration of folic acid in the nasal cavity ([1]; time 0 min) [mg %] | Concentration of folic acid in the nasal cavity ([1]; time 2 min) [mg %] | Concentration of folic acid in the nasal cavity ([1]; time 5 min) [mg %] | Concentration of folic acid in the nasal cavity ([1]; time 15 min) [mg %] | Patients with abdominal cramping, nausea, vomiting, and diarrhea [2] | Patients with elevation of serum transaminases (hepatotoxicity) [2]
Nc1nc(=O)c2nc(CNc3ccc(C(=O)NC(CCC(=O)O)C(=O)O)cc3)cnc2[nH]1 [folic acid, N-[4-[[(2-Amino-1,4-dihydro-4-oxo-6-pteridinyl)methly]amino]benzoyl]-L-glutamic acid] | 4.1 | 3.8 | 2.9 | 2.6 | – | –
Nc1c2c(nc3ccccc13)CCCC2 [tacrine, 1,2,3,4-tetrahydro-9-aminoacridine] | – | – | – | – | up to one-third | up to 20 % of patients
